In patent US20240016788A1, “PHARMACEUTICAL COMPOSITION FOR PREVENTING OR TREATING DIABETIC AND POSTMENOPAUSAL OSTEOPOROSIS, CONTAINING ADIPORON” (PnP Biopharm Co., Ltd., priority 2020, published 2024):

What was measured:
Format in all cases: in vivo
non-diabetic db/m mice = assay: Body weight, blood biochemistry and 24-hour urine oxidative stress in non-diabetic db/m mice; details: adiporon 30 mg/kg/day in diet for 4 weeks, mean ± SD
Description: (§1) A leptin receptor-defective type 2 diabetic animal model (db/db mice) and a normal control group (db/m mice) were used, and the experiment was performed by dividing into 4 groups as follows: non-diabetic control group (dm cont, n=8), non-diabetic adiporon treatment group (dm+AdipoR, n=8), diabetic control group (db cont, n=8) and diabetic adiporon treatment group (db+AdipoR, n=8). The control group was fed a normal diet, and the adiporon treatment group was fed a diet comprising adiporon (30 mg/kg/day) for 4 weeks from 16 weeks of age. During the experiment, body weight was measured every week, fasting blood glucose was measured using an Accu-Chek meter (Roche Diagnostics, St. Louis, MO) every 2 weeks after blood was collected from the tail vein, and glycated hemoglobin (HbA1c) was measured every 4 weeks using a […] automatic analyzer (Bayer healthcare LLC, IN) after blood was collected from the tail vein. The temperature and humidity of the breeding room were maintained at 20˜25° C. and 50˜60%, respectively, and the lights were turned on and off at 12-hour intervals. In both experiments, blood collected from each mouse was allowed to stand at room temperature for 30 minutes, and then centrifuged at 3000 rpm for 15 minutes to obtain serum. Blood levels of tartrate-resistant acid phosphatase (TRAP/ACP5) and osterocalcin concentration were measured by ELISA. In addition, 8-hydroxy-deoxyguanosine, a DNA damage marker caused by oxidative stress, and isoprostane, a marker of oxidative stress caused by lipid peroxidation caused by free fatty acids, and deoxypyridinoline (DPP), which indicates the function of osteoclasts, were measured in 24-hour urine concentrations by ELISA method.

[1] = system: type 2 diabetic db/db mice; assay: Serum ACP5/TRAP, osteocalcin and urine deoxypyridinoline by ELISA, db/db mice; details: adiporon 30 mg/kg/day, 4 weeks
Description: as §1

[2] = system: ovariectomized C57BL/6 mice; assay: Serum ACP5/TRAP, osteocalcin and urine deoxypyridinoline by ELISA, ovariectomized mice; details: for Increased concentration of deoxypyridinoline in urine: P<0.05
Description: 7 weeks after ovariectomization or sham surgery of 7-week-old C57BL/6 mice, normal feed group (adiporon non-administered group; control group) administration group, 2.5 mg/kg day or 25 mg/kg day, respectively Feed comprising adiporon was consumed for 6 weeks from 14 weeks of age. Body weight was measured every week during the experiment period, and the experiment was conducted after 6 weeks of administration. In both experiments, blood collected from each mouse was allowed to stand at room temperature for 30 minutes, and then centrifuged at 3000 rpm for 15 minutes to obtain serum. Blood levels of tartrate-resistant acid phosphatase (TRAP/ACP5) and osterocalcin concentration were measured by ELISA. In addition, 8-hydroxy-deoxyguanosine, a DNA damage marker caused by oxidative stress, and isoprostane, a marker of oxidative stress caused by lipid peroxidation caused by free fatty acids, and deoxypyridinoline (DPP), which indicates the function of osteoclasts, were measured in 24-hour urine concentrations by ELISA method.

[3] = system: type 2 diabetic db/db mice; assay: Body weight, blood biochemistry and 24-hour urine oxidative stress in diabetic osteoporosis model db/db mice
Description: as §1

[4] = adiporon 2.5 or 25 mg/kg day, dose not distinguished, ELISA
[5] = db/db mice (type 2 diabetic), adiporon 30 mg/kg/day in diet for 4 weeks, mean ± SD
[6] = db/db mice, adiporon 30 mg/kg/day, 4 weeks, result in words

Cl.O=C(COc1ccc(C(=O)c2ccccc2)cc1)NC1CCN(Cc2ccccc2)CC1 [adiporon]
Blood glucose (non-diabetic db/m mice): 136 ± 8 mg/dL
HbA1c (non-diabetic db/m mice): 3.8 ± 0.2%
Serum NEFA (non-diabetic db/m mice): 0.67 ± 0.23 mEq/I
Serum TC (non-diabetic db/m mice): 2.5 ± 0.4 mmol/L
Serum TG (non-diabetic db/m mice): 1.4 ± 0.2 mmol/L
Serum adiponectin (non-diabetic db/m mice): 11214 ± 1214 ng/mL
Urinary 8-OHDG (non-diabetic db/m mice): 36.5 ± 14.5 ng/24 h
Urinary isoprostane (non-diabetic db/m mice): 4.3 ± 2.2 ng/24 h
Decreased serum ACP5/TRAP concentration ([1]; ELISA): restored
Decreased serum osteocalcin concentration ([1]; ELISA): restored
Increased concentration of deoxypyridinoline in urine ([1]; P<0.001): reversed
Increased concentration of deoxypyridinoline in urine ([2]; adiporon 2.5 mg/kg day vs not administered): significantly reduced
Increased concentration of deoxypyridinoline in urine ([2]; adiporon 25 mg/kg day vs not administered): significantly reduced
Decreased serum osteocalcin concentration [2, 4]: reversed
Serum ACP5/TRAP concentrations [2, 4]: no such change
Body wt [3, 5]: 53 ± 4.8 g
Urinary 8-OHDG [3, 5]: 74.5 ± 19.6 ng/24 h
Urinary isoprostane [3, 5]: 19.3 ± 9.4 ng/24 h
Changes of body weight, blood glucose, glycated hemoglobin, blood total cholesterol, triglyceride, free fatty acid and blood adiponectin ([3]; db/db mice vs db/m, adiporon 30 mg/kg/day, 4 weeks, result in words): restored
24-hour urine concentration of 8-hydroxy-deoxyguanosine (increase in db/db) [3, 6]: improved the index increase
24-hour urine concentration of isoprostane (increase in db/db) [3, 6]: improved the index increase
